The test concerns the target cGMP-specific 3',5'-cyclic phosphodiesterase PDE5A (Homo sapiens) (UniProt O76074). The test is described as follows: Inhibition of human platelet PDE5.

In BindingDB's records for doi:10.1021/jm401549m (Chiesi Farmaceutici, 2014) one finds IC50 data, which are given here for one compound.

Turning to `CS(=O)(=O)Nc1ccc(C(=O)O[C@@H](Cc2c(Cl)c[n+]([O-])cc2Cl)c2ccc(OC(F)F)c(OCC3CC3)c2)cc1OCC1CC1` [Chf-6001], the 50% inhibitory concentration (IC50) (as a rule, the concentration needed to halve the response being measured) was above 1000 nM.
